Measured values taken from publication PMC4454677, “Prolyl Oligopeptidase from the Blood Fluke Schistosoma mansoni: From Functional Analysis to Anti-schistosomal Inhibitors” (PLoS Neglected Tropical Diseases, 2015).
“Also recorded” adds a separate entry of the source. Structures can show the parent of a compound that is named as a salt. Where two headings read alike, the source gives them in different places. Numbered stars: 1 amine (or outer) side, 2 acyl side, 3 side chain; on linkers, the order of the positions; unused ones are H or OH. Square brackets hold non-standard residues; d marks the D form. Peptide text beside a SMILES is read from it. * marks the point of attachment. Sta = CC(C)C[C@H](N)[C@@H](O)CC(=O)O; Isovaleryl = CC(C)CC(=O)*; Cbz = O=C(OCc1ccccc1)*; CO = O=C([*:1])[*:2]; CH2Cl = ClC*

Assays:
recombinant SmPOP = recombinant SmPOP (Schistosoma mansoni, UniProt A0A5K4EZK1); experiment: biochemical; format: biochemical
[1] = system: newly transformed schistosomula (NTS); experiment: Parasite assay and phenotype scoring with NTS in culture; format: cell-based, Schistosoma mansoni; details: inhibitors at 10 μM and 1 μM, up to 4 days, grade I most severe
Procedure: NTS (200–300 parasites) were incubated in 200 μL of Basch Medium 169 and supplements, as described above. Inhibitors were added at final concentrations of 1 or 10 μM (0.5% DMSO final) and the incubations continued for 4 days. Grading of phenotypic responses arising as a function of time and concentration was modified after Jilkova et al.: Grade I, dead NTS by 2 days of culture at 10 μM and dying/dead NTS by 3 days at 1 μM. Grade II, dead NTS by 3 days at 10 μM and round/dark/dying by 3 days at 1 μM; Grade III, round/dark by 3 days at 1 and 10 μM concentrations (S1 Fig). ‘Dead’ was adjudicated as the loss of normal shape and the lack of movement often accompanied by obvious internal disruptions. ‘Dying’ was similar to death except that movement was detectable. Otherwise, the terms ‘round/dark’ were used to indicate less severe but obvious changes in the parasites relative to DMSO controls.

human POP (HsPOP) = target: T1, human POP (HsPOP) (Homo sapiens, UniProt P48147); experiment: biochemical
T1 sequence (P48147 1-710): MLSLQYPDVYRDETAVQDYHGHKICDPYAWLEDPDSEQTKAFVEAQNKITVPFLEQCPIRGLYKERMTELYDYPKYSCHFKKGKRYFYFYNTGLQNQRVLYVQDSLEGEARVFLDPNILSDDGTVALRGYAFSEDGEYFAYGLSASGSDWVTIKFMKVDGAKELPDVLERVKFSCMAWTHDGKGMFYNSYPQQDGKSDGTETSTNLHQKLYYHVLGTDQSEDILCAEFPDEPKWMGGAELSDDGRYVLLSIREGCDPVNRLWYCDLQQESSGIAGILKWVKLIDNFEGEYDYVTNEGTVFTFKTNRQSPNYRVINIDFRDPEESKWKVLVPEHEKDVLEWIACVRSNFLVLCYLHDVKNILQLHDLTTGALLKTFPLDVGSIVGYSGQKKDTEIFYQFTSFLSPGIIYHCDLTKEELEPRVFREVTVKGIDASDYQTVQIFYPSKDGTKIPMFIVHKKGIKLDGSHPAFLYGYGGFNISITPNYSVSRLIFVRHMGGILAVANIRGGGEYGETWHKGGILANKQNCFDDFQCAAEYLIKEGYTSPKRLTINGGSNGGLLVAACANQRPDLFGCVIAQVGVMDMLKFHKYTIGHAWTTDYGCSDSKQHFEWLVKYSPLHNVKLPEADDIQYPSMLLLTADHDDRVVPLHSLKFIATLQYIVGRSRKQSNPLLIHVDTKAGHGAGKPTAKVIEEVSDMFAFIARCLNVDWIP

[2] = system: adult schistosomes (cleavage of angiotensin I and bradykinin); experiment: Hydrolysis of peptide hormones by cultured schistosomes (MALDI-TOF); format: cell-based, Schistosoma mansoni; details: live adults in culture; 16 h; mass spectrometry
Procedure: Five adult schistosome pairs were placed into clear, 24-well, flat-bottom plates (Costar) containing 500 μL Basch Medium […] [28], supplemented with 2.5% FBS, 100 units/mL penicillin and 100 μg/mL streptomycin. Human angiotensin I or bradykinin in 5 μL water was added to a final concentration of 100 μM and the incubation continued for 16 h at 37°C under a 5% CO2 atmosphere. In control experiments, the peptides were cultivated in the same system in the absence of schistosomes. After incubation, the samples were ZipTiped and the resulting fragments were analyzed using MALDI-TOF performed on an UltrafleXtreme (Bruker Daltonik) operated in reflectron mode with an acceleration voltage of 25 kV and a pulsed ion extraction of 120 ns. Desorption and ionization were achieved using a Smartbeam II laser. α-Cyano-4-hydroxycinnamic acid was used as a matrix. The data were acquired from m/z 220 to 3700 and analyzed with the FlexAnalysis 3.3 software (Bruker Daltonik). The mass spectra were externally calibrated using a Peptide Calibration Standard I (Bruker Daltonik) and averaged from 3000 laser shots.

[3] = system: SmPOP activity of live NTS and adult schistosomes; experiment: Fluorescence SmPOP activity assay with cultured schistosomes; format: cell-based, Schistosoma mansoni; details: 1 μM inhibitor; NTS or adult worms in culture
Procedure: Adult worms (3 pairs) or approximately 150 NTS were incubated at 37°C and 5% CO2 for 2 days in 200 μL of Basch Medium 169 containing 5% FBS, 100 units/mL of penicillin and 100 μg/mL using black clear bottomed 96-well microplates (Costar). After incubation, half of the medium (100 μl) was transferred to an empty well leaving the parasites in the remaining half. Then SmPOP activity was measured in both wells upon the addition of 20 μL of Z-Gly-Pro-AMC (prepared as a 250 μM stock in Basch Medium 169) and in the presence or absence of 1 μM of the POP inhibitor, Z-Ala-Pro-CMK. Controls contained medium alone.

Molecule: CC(C)C[C@H](NC(=O)[C@H]1O[C@@H]1C(=O)O)C(=O)NCCCCN=C(N)N (relative stereo) [E64, trans-Epoxysuccinyl-L-leucylamido(4-guanidino)butane]
- Inhibition (%) (recombinant SmPOP; 10 µM): 6.5±6.1%

Molecule: O=c1oc(Cl)c(Cl)c2ccccc12 [3,4-dichloroisocoumarin]
- Inhibition of rSmPOP activity (in words) (recombinant SmPOP): Partial inhibition
- inhibition at 100 µM (recombinant SmPOP): 77.3 ± 0.6%

Molecule: CC(C)[C@H](NC(=O)[C@H](CCCNC(=N)N)NC(=O)N[C@@H](Cc1ccccc1)C(=O)O)C(=O)N[C@H](C=O)CCCNC(=N)N [Antipain] ({Phe-CO}-Arg-Val-Arg-aldehyde)
- inhibition at 20 µM (recombinant SmPOP): 32.4 ± 1.4%

Molecule: N=C(N)c1ccccc1 [Benzamidine]
- Inhibition of rSmPOP activity (in words) (recombinant SmPOP): only weakly
- inhibition at 10 µM (recombinant SmPOP): 3.7 ± 1.1%

Molecule: CC(C)C[C@H](NC(=O)[C@@H](O)[C@H](N)Cc1ccccc1)C(=O)O [Bestatin]
- inhibition at 1 µM (recombinant SmPOP; read-out: Inhibition (%)): 2.3 ± 2.1%

Molecule: O=C(O)CN(CCN(CC(=O)O)CC(=O)O)CC(=O)O [EDTA]
- Inhibition (%) (recombinant SmPOP; 1000 µM): 3.8±2.3%

Molecule: CC(=O)N[C@@H](CC(C)C)C(=O)N[C@@H](CC(C)C)C(=O)N[C@H](C=O)CCCNC(=N)N [Leupeptin]
- inhibition at 20 µM (recombinant SmPOP): 2.3 ± 1.2%

Molecule: O=S(=O)(F)Cc1ccccc1 [PMSF, phenylmethylsulfonyl fluoride]
- Inhibition of rSmPOP activity (in words) (recombinant SmPOP): Partial inhibition
- Inhibition (%) (recombinant SmPOP; 1000 µM): 47.6±1.6%

Molecule: Cl.NCCc1ccc(S(=O)(=O)F)cc1 [Pefabloc SC]
- Inhibition of rSmPOP activity (in words) (recombinant SmPOP): Partial inhibition; also recorded: only weakly
- Inhibition (%) (recombinant SmPOP; 1000 µM): 12.0±3.1%

Molecule: CC(C)CC(=O)N[C@H](C(=O)N[C@H](C(=O)N[C@@H](CC(C)C)[C@@H](O)CC(=O)N[C@@H](C)C(=O)N[C@@H](CC(C)C)[C@@H](O)CC(=O)O)C(C)C)C(C)C [Pepstatin A] (Isovaleryl-VV[Sta]A[Sta]-OH)
- inhibition at 1 µM (recombinant SmPOP): 7.3 ± 3.5%

Molecule: O=C([C@@H]1C[C@@H](O)CN1C(=O)CCCOc1ccccc1/C=C/c1ccccc1)N1CCSC1 [SUAM 14746]
- Severity of phenotype against parasite, Grade [1]: no effect
- IC50 (human POP (HsPOP); read-out: IC50 human POP): 0.083 µM
- IC50 (recombinant SmPOP; read-out: IC50 SmPOP): 0.092 µM

Molecule: Cc1ccc(S(=O)(=O)N[C@@H](CCCCN)C(=O)CCl)cc1 [TLCK, Nα-Tosyl-L-lysine chloromethyl ketone]
- Inhibition of rSmPOP activity (in words) (recombinant SmPOP): Partial inhibition
- Inhibition (%) (recombinant SmPOP; 1 µM): 38.3±1.2%

Molecule: Cc1ccc(S(=O)(=O)N[C@@H](Cc2ccccc2)C(=O)CCl)cc1 [TPCK, N-p-Tosyl-L-phenylalanine chloromethyl ketone]
- Inhibition of rSmPOP activity (in words) (recombinant SmPOP): Partial inhibition
- Inhibition (%) (recombinant SmPOP; 1 µM): 67.2±6.2%

Molecule: CC(C)c1ccc(C(=O)c2cccs2)c(SCCCCCCCCN(C)C)n1 [Y-29794 oxalate, 2-[[8-(Dimethylamino)octyl]thio]-6-(1-methylethyl)-3-pyridinyl-2-thienylmethanone oxalate]
- IC50 (human POP (HsPOP); HsPOP, Z-Gly-Pro-AMC, pH 8.0, mean ± S.D., n=3, read-out: IC50 (μM) HsPOP): 0.49 ± 0.03 µM
- IC50 (recombinant SmPOP; read-out: IC50 (μM) SmPOP): 8.6 ± 0.4 µM

Molecule: C[C@H](NC(=O)OCc1ccccc1)C(=O)N1CCC[C@H]1C=O [Z-Ala-Pro-CHO] (Cbz-Ala-Pro-aldehyde)
- IC50 (human POP (HsPOP); read-out: IC50 (μM) HsPOP): 6.1 ± 0.3 µM
- IC50 (recombinant SmPOP; read-out: IC50 (μM) SmPOP): 3.1 ± 0.2 µM

Molecule: C[C@H](NC(=O)OCc1ccccc1)C(=O)N1CCC[C@H]1C(=O)CCl [Z-Ala-Pro-CMK, Z-Ala-Pro-chloromethyl ketone] (Cbz-Ala-Pro-CH2Cl)
- Fragmentation of angiotensin I and bradykinin by adult parasites in the presence of inhibitor [2]: abolished
- IC50 (human POP (HsPOP); read-out: IC50 (μM) HsPOP): 0.0168 ± 0.0046 µM
- Inhibition of rSmPOP activity (in words) (recombinant SmPOP): completely inhibited
- inhibition at 1 µM (recombinant SmPOP): 100 ± 3%
- IC50 (recombinant SmPOP; read-out: IC50 (μM) SmPOP): 0.0032 ± 0.0004 µM
- Cleavage of Z-Gly-Pro-AMC by live NTS or adult schistosomes in the presence of inhibitor [3]: abolished

Molecule: N=C(N)NCCC[C@H](NC(=O)OCc1ccccc1)C(=O)N1CCC[C@H]1C=O [Z-Arg-Pro-CHO] (Cbz-Arg-Pro-aldehyde)
- IC50 (human POP (HsPOP); read-out: IC50 (μM) HsPOP): 2.4 ± 0.2 µM
- IC50 (recombinant SmPOP; read-out: IC50 (μM) SmPOP): 1.3 ± 0.3 µM

Molecule: N=C(N)NCCC[C@H](NC(=O)OCc1ccccc1)C(=O)N1CCC[C@H]1C(=O)CCl [Z-Arg-Pro-CMK] (Cbz-Arg-Pro-CH2Cl)
- IC50 (human POP (HsPOP); read-out: IC50 (μM) HsPOP): 0.0048 ± 0.0006 µM
- IC50 (recombinant SmPOP; read-out: IC50 (μM) SmPOP): 0.0029 ± 0.0001 µM

Molecule: O=C[C@@H]1CCCN1C(=O)CNC(=O)OCc1ccccc1 [Z-Gly-Pro-CHO] (Cbz-Gly-Pro-aldehyde)
- IC50 (recombinant SmPOP; read-out: IC50 (μM) SmPOP): 6.1 ± 0.4 µM

Molecule: NCCCC[C@H](NC(=O)OCc1ccccc1)C(=O)N1CCC[C@H]1C=O [Z-Lys-Pro-CHO] (Cbz-Lys-Pro-aldehyde)
- Severity of phenotype against parasite, Grade [1]: I
- IC50 (human POP (HsPOP); read-out: IC50 (μM) HsPOP): 7.2 ± 0.6 µM
- IC50 (recombinant SmPOP; read-out: IC50 (μM) SmPOP): 3 ± 0.6 µM

Molecule: O=C(O)[C@@H]1CCCN1C(=O)OCc1ccccc1 [Z-Pro-OH]
- Inhibition (%) (recombinant SmPOP; 100 µM): 41.1±1.8%

Molecule: O=C[C@@H]1CCCN1C(=O)[C@@H]1CCCN1C(=O)OCc1ccccc1 [Z-Pro-Pro-CHO, benzyloxycarbonyl-L-prolyl-L-prolinal] (Cbz-Pro-Pro-aldehyde)
- Severity of phenotype against parasite, Grade [1]: no effect
- Inhibition of rSmPOP activity (in words) (recombinant SmPOP): completely inhibited
- IC50 (recombinant SmPOP; read-out: IC50 (μM) SmPOP): 0.16 ± 0.03 µM
- inhibition at 1 µM (recombinant SmPOP; read-out: Inhibition (%)): 100 ± 1%

Molecule: O=C(O)[C@@H]1CCCN1C(=O)[C@@H]1CCCN1C(=O)OCc1ccccc1 [Z-Pro-Pro-OH] (Cbz-Pro-Pro-OH)
- Inhibition (%) (recombinant SmPOP; 100 µM): 37.6±2.1%

Molecule: O=C[C@@H]1CCCN1C(=O)[C@H](Cc1ccc(O)cc1)NC(=O)OCc1ccccc1 [Z-Tyr-Pro-CHO] (Cbz-Tyr-Pro-aldehyde)
- IC50 (human POP (HsPOP); read-out: IC50 (μM) HsPOP): 11.4 ± 0.7 µM
- IC50 (recombinant SmPOP; read-out: IC50 (μM) SmPOP): 4.4 ± 0.4 µM

B1: STI: soybean trypsin inhibitor, protein inhibitor of serine peptidases (protein, UniProt P01070 25-205, looked up)
Trypsin inhibitor A: DFVLDNEGNPLENGGTYYILSDITAFGGIRAAPTGNERCPLTVVQSRNELDKGIGTIISSPYRIRFIAEGHPLSLKFDSFAVIMLCVGIPTEWSVVEDLPEGPAVKIGENKDAMDGWFRLERVSDDEFNNYKLVFCPQQAEDDKCGDIGISIDHDDGTRRLVVSKNKPLVVQFQKLDKESL
- Inhibition of rSmPOP activity (in words) (recombinant SmPOP): neither affected
- Inhibition (%) (recombinant SmPOP; 10 µM): 12.3±3.2%
